Our source for the IC50 values is patent publication US20250059172A1, “INDAZOLE COMPOUND AND PHARMACEUTICAL” (NIPPON SHINYAKU CO., LTD., priority 2021, published 2025).

The target of one experiment is human mPGES-1 (Homo sapiens (Human), UniProt O14684). Description: mPGES-1 inhibitory activity test. As to conditions: microsomes of CHO-K1 cells expressing human mPGES-1, PGH2 1 μM, PGE2 by HTRF; read-out: mPGES-1 inhibition (IC50 nM). The class given is biochemical. The method in brief: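 PGE2 formation was quantified by HTRF and reported as percent inhibition at 10 and 100 nM compound or as IC50. The 60-second reaction at 4° C used 1 μM PGH2, after a 20-minute 4° C preincubation of compound (1% DMSO final) with glutathione-supplemented (2.5 mM, pH 7.4) microsomes. The microsomes were from transiently transfected CHO-K1 cells expressing human mPGES-1.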
Chain of human mPGES-1 (O14684 whole entry): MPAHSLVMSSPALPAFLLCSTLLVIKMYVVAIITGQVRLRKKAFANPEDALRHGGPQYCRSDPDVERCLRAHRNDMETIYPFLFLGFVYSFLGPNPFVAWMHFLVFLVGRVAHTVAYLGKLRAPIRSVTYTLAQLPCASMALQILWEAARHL

The subject of the next experiment is human A549 cells. Description: Inhibition test of PGE2 production using human A549 cells. As to conditions: IL-1β stimulated A549 cells, 24 h, PGE2 by HTRF, read-out: A549 cell inhibition of PGE2 production IC50. The class given is cell-based. The essentials: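 A549 cells were preincubated 60 min with compound in RPMI/3% FBS (0.1% DMSO final), then stimulated with IL-1β (5 ng/well) for 24 h at 37°C. PGE2 was measured by HTRF and PGF2a by EIA; activity was normalized to stimulated minus unstimulated controls, and IC50 derived.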
(TR-FRET usually uses a lanthanide donor and a delayed reading to cut background.)

SMILES strings stand for the structures. Structures can show the parent of a compound that is named as a salt.

For the compound `CC(C)(C)C(=O)NCc1ccc(Cl)c(C(=O)Nc2cccc3c2cnn3-c2cncc(C(F)(F)F)c2)c1` [Example 57, 2-Chloro-5-{[(2,2-dimethylpropanoyl)amino]methyl}-N-{1-[5-(trifluoromethyl)pyridin-3-yl]-1H-indazol-4-yl}benzamide], the IC50 came to 19.8 nM at human mPGES-1 and 5.7 nM in the experiment with human A549 cells.
For `Cc1cc(-n2ncc3c(NC(=O)c4cc(CNC(=O)C(C)(C)C)ccc4Cl)cccc32)ccn1` [Example 58, 2-Chloro-5-{[(2,2-dimethylpropanoyl)amino]methyl}-N-[1-(2-methylpyridin-4-yl)-1H-indazol-4-yl]benzamide hydrochloride], in that order: 5.9 nM and 5.9 nM.
Take `Cc1cncc(-n2ncc3c(NC(=O)c4cc(CNC(=O)C(C)(C)C)ccc4Cl)cccc32)c1` [Example 60, 2-Chloro-5-{[(2,2-dimethylpropanoyl)amino]methyl}-N-[1-(5-methylpyridin-3-yl)-1H-indazol-4-yl]benzamide hydrochloride]: the results for the IC50 at human mPGES-1 and in the experiment with human A549 cells were 6.7 nM and 10.4 nM, respectively.
Taken in the same sequence, the figures for `COc1cncc(-n2ncc3c(NC(=O)c4cc(CNC(=O)C(C)(C)C)ccc4Cl)cccc32)c1` [Example 61, 2-Chloro-5-{[(2,2-dimethylpropanoyl)amino]methyl}-N-[1-(5-methoxypyridin-3-yl)-1H-indazol-4-yl]benzamide hydrochloride] were 3.5 nM and 2.9 nM.
For the compound `COc1ccc(-n2ncc3c(NC(=O)c4cc(CNC(=O)C(C)(C)C)ccc4Cl)cccc32)cc1C(F)(F)F` [Example 62, 2-Chloro-5-{[(2,2-dimethylpropanoyl)amino]methyl}-N-{1-[4-methoxy-3-(trifluoromethyl)phenyl]-1H-indazol-4-yl}benzamide], the IC50 at human mPGES-1 turned out to be 2.4 nM; in the experiment on human A549 cells it was 3.6 nM.
Taken in the same sequence, the figures for `COc1ccc(-n2ncc3c(NC(=O)c4cc(CNC(=O)C(C)(C)C)ccc4Cl)cccc32)cn1` [Example 63, 2-Chloro-5-{[(2,2-dimethylpropanoyl)amino]methyl}-N-[1-(6-methoxypyridin-3-yl)-1H-indazol-4-yl]benzamide] were 1 nM and 13.7 nM.
Taken in the same sequence, the figures for `CC(C)(C)C(=O)NCc1ccc(Cl)c(C(=O)Nc2cccc3c2cnn3-c2cncc(C3CC3)c2)c1` [Example 64, 2-Chloro-N-[1-(5-cyclopropylpyridin-3-yl)-1H-indazol-4-yl]-5-{[(2,2-dimethylpropanoyl)amino]methyl}benzamide hydrochloride] were 1.4 nM and 1.9 nM.
For the compound `CCOc1ccc(-n2ncc3c(NC(=O)c4cc(CNC(=O)C(C)(C)C)ccc4Cl)cccc32)cc1` [Example 65, 2-Chloro-5-{[(2,2-dimethylpropanoyl)amino]methyl}-N-[1-(4-ethoxyphenyl)-1H-indazol-4-yl]benzamide], the half-inhibitory concentration (IC50) at human mPGES-1 worked out at 2.2 nM; in the experiment with human A549 cells, 3.6 nM.
As to `CCOc1cccc(-n2ncc3c(NC(=O)c4cc(CNC(=O)C(C)(C)C)ccc4Cl)cccc32)c1` [Example 66, 2-Chloro-5-{[(2,2-dimethylpropanoyl)amino]methyl}-N-[1-(3-ethoxyphenyl)-1H-indazol-4-yl]benzamide], the IC50 at human mPGES-1 was 0.2 nM; in the experiment with human A549 cells, 4 nM.
`COc1ccc(-n2ncc3c(NC(=O)c4cc(CNC(=O)C(C)(C)C)ccc4Cl)cccc32)cc1OC` [Example 67, 2-Chloro-N-[1-(3,4-dimethoxyphenyl)-1H-indazol-4-yl]-5-{[(2,2-dimethylpropanoyl)amino]methyl}benzamide]: the IC50 at human mPGES-1 is 3.7 nM; in the experiment with human A549 cells it was 5.1 nM.
For `CC(C)Oc1cccc(-n2ncc3c(NC(=O)c4cc(CNC(=O)C(C)(C)C)ccc4Cl)cccc32)c1` [Example 68, 2-Chloro-5-{[(2,2-dimethylpropanoyl)amino]methyl}-N-{1-[3-(propan-2-yloxy)phenyl]-1H-indazol-4-yl}benzamide], in that order: 6.7 nM and 2 nM.
Consider `CC(C)(C)C(=O)NCc1ccc(Cl)c(C(=O)Nc2cccc3c2cnn3-c2cccc(OC(F)(F)F)c2)c1` [Example 71, 2-Chloro-5-{[(2,2-dimethylpropanoyl)amino]methyl}-N-{1-[3-(trifluoromethoxy)phenyl]-1H-indazol-4-yl}benzamide], for which the 50% inhibitory concentration (IC50) on human mPGES-1 was determined as 0.1 nM; with human A549 cells, 0.6 nM.
`CC(C)(C)C(=O)NCc1ccc(Cl)c(C(=O)Nc2cccc3c2cnn3-c2ccc(C#N)nc2)c1` [Example 72, 2-Chloro-N-[1-(6-cyanopyridin-3-yl)-1H-indazol-4-yl]-5-([(2,2-dimethylpropanoyl)amino]methyl)benzamide]: the IC50 on human mPGES-1 is 6.2 nM; with human A549 cells, 11.5 nM.
Taken in the same sequence, the figures for `COc1cc(-n2ncc3c(NC(=O)c4cc(CNC(=O)C(C)(C)C)ccc4Cl)cccc32)ccn1` [Example 73, 2-Chloro-5-{[(2,2-dimethylpropanoyl)amino]methyl}-N-[1-(2-methoxypyridin-4-yl)-1H-indazol-4-yl]benzamide hydrochloride] were 1.2 nM and 3.3 nM.
Taken in the same sequence, the figures for `COCc1ccc(-n2ncc3c(NC(=O)c4cc(CNC(=O)C(C)(C)C)ccc4Cl)cccc32)cn1` [Example 74, 2-Chloro-5-{[(2,2-dimethylpropanoyl)amino]methyl}-N-{1-[6-(methoxymethyl)pyridin-3-yl]-1H-indazol-4-yl}benzamide hydrochloride] were 1.3 nM and 15.6 nM.
For `CC(C)(C)C(=O)NCc1ccc(Cl)c(C(=O)Nc2cccc3c2cnn3-c2ccc(CO)nc2)c1` [Example 75, 2-Chloro-5-{[(2,2-dimethylpropanoyl)amino]methyl}-N-{1-[6-(hydroxymethyl)pyridin-3-yl]-1H-indazol-4-yl}benzamide], in that order: 71.1 nM and 260 nM.
Regarding `Cc1cc(-n2ncc3c(NC(=O)c4cc(CNC(=O)C(C)(C)C)ccc4Cl)cccc32)cc(C)n1` [Example 76, 2-Chloro-5-{[(2,2-dimethylpropanoyl)amino]methyl}-N-[1-(2,6-dimethylpyridin-4-yl)-1H-indazol-4-yl]benzamide hydrochloride], the IC50 at human mPGES-1 was 2.4 nM; with human A549 cells, 5.2 nM.
For `CC(C)(C)C(=O)NCc1ccc(Cl)c(C(=O)Nc2cccc3c2cnn3-c2ccc(C(F)(F)F)nc2)c1` [Example 77, 2-Chloro-5-{[(2,2-dimethylpropanoyl)amino]methyl}-N-{1-[6-(trifluoromethyl)pyridin-3-yl]-1H-indazol-4-yl}benzamide], in that order: 1.1 nM and 1 nM.
Taken in the same sequence, the figures for `COCc1cncc(-n2ncc3c(NC(=O)c4cc(CNC(=O)C(C)(C)C)ccc4Cl)cccc32)c1` [Example 78, 2-Chloro-5-{[(2,2-dimethylpropanoyl)amino]methyl}-N-{1-[5-(methoxymethyl)pyridin-3-yl]-1H-indazol-4-yl}benzamide hydrochloride] were 10.4 nM and 9.8 nM.
Taken in the same sequence, the figures for `Cc1cc(OC(F)(F)F)ccc1-n1ncc2c(NC(=O)c3cc(CNC(=O)C(C)(C)C)ccc3Cl)cccc21` [Example 79, 2-Chloro-5-{[(2,2-dimethylpropanoyl)amino]methyl}-N-{1-[2-methyl-4-(trifluoromethoxy)phenyl]-1H-indazol-4-yl}benzamide] were 1 nM and 3.4 nM.

As a reminder, the IC50 is the concentration that gives 50% inhibition.
